The subject of the experiment is recombinant T. vaginalis cysteine synthase (CS). As to the kind of experiment: coupled assay with MGL1 and LDH, NADH oxidation at […] nm. The format is biochemical, Trichomonas vaginalis. The settings on record: 200 mM potassium phosphate pH 7.8, 37°C.

Consider two molecules from article PMC5739422, “Metabolomic profiling and stable isotope labelling of Trichomonas vaginalis and Tritrichomonas foetus reveal major differences in amino acid metabolism including the production of 2-hydroxyisocaproic acid, cystathionine and S-methylcysteine” (PLoS ONE, 2017).

As to `N[C@@H](COP(=O)(O)O)C(=O)O` [OPS], the Km (in general, the concentration of substrate that gives half-maximal velocity) (cysteine synthase reaction, 3 mM Na2S) stood at 18.2 ± 0.8 mM.

Consider `CS` [CH3SNa], for which the Km (SMC synthase reaction, 10 mM OPS) came out at 4.3 ± 1.6 mM.
